Experimental data: patent US20180055844A1 (Celgene Corporation, priority 2011, published 2018)
Where “and” joins values, the source holds several entries; their conditions need not be identical. Equal values may be shown once. Read-outs that look alike come from different tables or passages of the source.

Key:
human umbilical artery = test: Human umbilical artery angiogenesis assay; type: cell-based
[1] = Pharmacokinetics in monkeys on Day 1 and Day 27; conditions: monkey, in vivo; for AUC(0-t): read-out: AUC0-24
HCT15 = test: Invasion of solid tumor cells; type: cell-based
U251 = test: Invasion of solid tumor cells; type: cell-based; conditions: Homo sapiens, U-251; U251 (PDGF), glioblastoma
[2] = PK profiles in male monkeys; type: in vivo, monkey; conditions: for AUC(0-t) / Cmax: monkey, in vivo, po, male monkeys
HIF-1α = HIF-1α protein expression in solid tumor cell lines; type: cell-based; conditions: 1 μM
Oral pharmacokinetics = type: in vivo; conditions: SCID mouse
TNFα = test: WB TNFα; type: cell-based; conditions: Homo sapiens; whole blood
H929 myeloma cells = test: Cell cycle in siRNA-transfected H929 cells; type: cell-based; conditions: 72 h treatment
Protocol: Cells were treated with DMSO or an amount of a compound provided herein for 48 hours. Propidium iodide staining for cell cycle was performed using CycleTEST PLUS (Becton Dickinson) according to manufacturer's protocol. Following staining, cells were analyzed by a FACSCalibur flow cytometer using ModFit LT software (Becton Dickinson).
The effect of cereblon in H929 myeloma cells was also evaluated. H929 cells were transfected with mock, negative control siRNA and CRBN-siRNA-7 for 24, 48, 72 and 96 hours.

HUVEC [3] = test: HUVEC proliferation; type: cell-based, human
SK-HEP-1 = test: Solid tumor cell colony formation; type: cell-based; conditions: Homo sapiens, SK-HEP1
HUVEC [4] = test: HUVEC tube formation; type: cell-based, human
HEP-G2 = test: Solid tumor cell colony formation; type: cell-based; conditions: Homo sapiens, HepG2
pRb, IRF4 = test: Western blot of cell cycle regulators in H929 cells; type: cell-based
[5] = female, 0.15 mg/kg, Day 1, 0.15 mg/kg, female
[6] = female, 0.15 mg/kg, Day 27, 0.15 mg/kg, female
[7] = female, 1.5 mg/kg, Day 1, 1.5 mg/kg, female
[8] = female, 1.5 mg/kg, Day 27, 1.5 mg/kg, female
[9] = female, 15 mg/kg, Day 1, 15 mg/kg, female
[10] = female, 15 mg/kg, Day 27, 15 mg/kg, female
[11] = male, 0.15 mg/kg, Day 1, 0.15 mg/kg, male
[12] = male, 0.15 mg/kg, Day 27, 0.15 mg/kg, male
[13] = male, 1.5 mg/kg, Day 1, 1.5 mg/kg, male
[14] = male, 1.5 mg/kg, Day 27, 1.5 mg/kg, male
[15] = male, 15 mg/kg, Day 1, 15 mg/kg, male
[16] = male, 15 mg/kg, Day 27, 15 mg/kg, male

## Cc1nc2cccc(N)c2c(=O)n1C1CCC(=O)NC1=O (stereo not shown) [compound of Formula I, 3-(5-amino-2-methyl-4-oxo-4H-quinazolin-3-yl)-piperidine-2,6-dione]
Human umbilical artery; read-out: Human angiogenesis IC50
  IC50: 9.4 nM
Human umbilical artery; read-out: anti-angiogenic IC50, human umbilical artery assay
  IC50: 9.4 nM
[1]; [5]
  Cmax: 63 ng/mL
  Tmax: 2 h
  AUC(0-t): 450 ng·h/mL
[1]; [6]
  Cmax: 57 ng/mL
  Tmax: 2 to 4 h
  AUC(0-t): 450 ng·h/mL
[1]; [7]
  Cmax: 680 ng/mL
  Tmax: 2 h
  AUC(0-t): 4100 ng·h/mL
[1]; [8]
  Cmax: 590 ng/mL
  Tmax: 0.5 to 2 h
  AUC(0-t): 4200 ng·h/mL
[1]; [9]
  Cmax: 4200 ng/mL
  Tmax: 2 to 4 h
  AUC(0-t): 38000 ng·h/mL
[1]; [10]
  Cmax: 7000 ng/mL
  Tmax: 4 h
  AUC(0-t): 75000 ng·h/mL
[1]; [11]
  Cmax: 36 ng/mL
  Tmax: 2 to 4 h
  AUC(0-t): 430 ng·h/mL
[1]; [12]
  Cmax: 53 ng/mL
  Tmax: 4 h
  AUC(0-t): 570 ng·h/mL
[1]; [13]
  Cmax: 510 ng/mL
  Tmax: 2 to 4 h
  AUC(0-t): 4600 ng·h/mL
[1]; [14]
  Cmax: 560 ng/mL
  Tmax: 2 h
  AUC(0-t): 5700 ng·h/mL
[1]; [15]
  Cmax: 4100 ng/mL
  Tmax: 4 h
  AUC(0-t): 51000 ng·h/mL
[1]; [16]
  Cmax: 5800 ng/mL
  Tmax: 2 to 4 h
  AUC(0-t): 72000 ng·h/mL
HCT15; Homo sapiens, HCT-15, HCT15 (bFGF), colorectal
  IC50: 7.2 nM
HCT15; with siCRBN
  ability to inhibit invasion of HCT-15 cells: reduced
U251
  IC50: 3700 nM
[2]; 0.3 mg/kg
  AUC(0-t): 1300 ng·h/mL and 4.5 µM·h
  Cmax: 100 ng/mL and 360 nM
[2]; 3 mg/kg
  AUC(0-t): 14000 ng·h/mL and 49 µM·h
  Cmax: 1100 ng/mL and 3.8 µM
[2]; 10 mg/kg
  AUC(0-t): 38000 ng·h/mL and 130 µM·h
  Cmax: 3100 ng/mL and 11 µM
[2]; 30 mg/kg
  AUC(0-t): 99000 ng·h/mL and 350 µM·h
  Cmax: 7700 ng/mL and 27 µM
[2]; up to 30 mg/kg, male monkey
  Exposures (AUC(0-t)) versus dose: increased in a dose proportional manner
HIF-1α; 786-O (renal cancer)
  % Inhibition of HIF-1α protein expression: 41.70%
HIF-1α; DU145 (prostate cancer)
  % Inhibition of HIF-1α protein expression: 66.01%
HIF-1α; HCT15 (colorectal cancer)
  % Inhibition of HIF-1α protein expression: 69.26%
HIF-1α; HCT116 (colorectal cancer)
  % Inhibition of HIF-1α protein expression: 74.60%
HIF-1α; HT29 (colorectal cancer)
  % Inhibition of HIF-1α protein expression: 78.54%
HIF-1α; MCF-7 (breast cancer)
  % Inhibition of HIF-1α protein expression: 74.82%
HIF-1α; Miapaca-3 (pancreatic cancer)
  % Inhibition of HIF-1α protein expression: 33.72%
HIF-1α; Ovcar-3 (ovarian cancer)
  % Inhibition of HIF-1α protein expression: 63.39%
HIF-1α; Skov-3 (ovarian cancer)
  % Inhibition of HIF-1α protein expression: 100.00%
HIF-1α; U87 (brain cancer)
  % Inhibition of HIF-1α protein expression: 73.81%
Oral pharmacokinetics; in vivo, 3 mg/kg, 3 mpk po
  AUC: 7100 ng·h/mL and 25 µM·h
  Cmax: 2900 ng/mL and 10 µM
Oral pharmacokinetics; up to 30 mg/kg
  Exposures (AUC(0-t)) versus dose: increased in a dose proportional manner
TNFα
  IC50: 164 nM
H929 myeloma cells; H929, control (before CRBN knockdown)
  drug-induced delay in cell cycle progression (decrease of the number of cells in S phase): 65%
H929 myeloma cells; H929, knockdown of CRBN
  drug-induced delay in cell cycle progression (decrease of the number of cells in S phase): 22%
HUVEC [3]
  HUVEC proliferation: did not inhibit
HUVEC [3]; growth factor-induced
  growth factor-induced HUVEC proliferation: either enhanced or did not inhibit
SK-HEP-1
  inhibition at 10 µM: 6%
HUVEC [4]
  VEGF and bFGF-induced HUVEC tube formation and migration: weakly inhibited
HEP-G2
  inhibition at 10 µM: 6.9%
pRb, IRF4
  phosphorylation of pRB: decreased
  total level of protein IRF4: decreased
